Experiments:
Type in all cases: cell-based
[1] = system: Gb4 glioblastoma cancer stem cells; assay: Proliferation of gliospheres after Rad18 siRNA treatment; settings: 72 hours post-treatment, absence of external damage, versus control siRNA (siLuc)
Description: FIG. 6. Rad18 downregulation affects the proliferation of glioblastoma cancer stem cells in the absence of external damage. (A) Western blot of Gb4 glioblastoma cancer stem cells extracts treated with control siRNA (siLuc, lane 1), or a Rad18-specific siRNA (siRad18, lane 2) analysed 72 hours post-treatment. Extracts were probed with anti-Rad18 or anti-PCNA antibodies. (B) Phase contrast microscopy images of gliospheres treated with control siRNA or Rad18-specific siRNA 72 hours post-treatment. (C) Quantification of gliospheres proliferation upon downregulation of Rad18 expression expressed as number of cells. Glioblastoma cancer stem cells extracts were treated as described in panel A and cells were counted before (0 h) or 72 hours post-treatment (72 h).
Glioblastoma cancer stem cells (Gliospheres, Gb4 and Gb7 cell lines) were isolated from patients as described in Clarion et al, 2014.
Cells were maintained in DMEM-F12 (Lonza, Levallois-Perret, France) supplemented with B27 and N2 (Invitrogen, LifeTechnologies, Saint Aubin, France), 25 ng/ml of FGF-2 and EGF (Peprotech, Neuilly sur Seine, France) at 37° C. in 5% CO2 humidified incubators.
Gb4 glioblastoma cancer stem cells extracts, treated with control siRNA or a Rad18-specific siRNA (SEQ ID NO:3) were analysed 72 hours post-treatment. […]

[2] = system: U87 glioblastoma cell line; assay: Cell viability of U87 cells transfected with Rad18 siRNA and challenged with cisplatin; settings: U87 cells co-transfected with siRNA and empty vector, increasing cisplatin, CellTiter-Glo; rescued by re-expression of Rad18
Text: (E) Survival curves of U87 glioblastoma cells co-transfected with empty vector and non-specific siRNA (siLuc+EV), or Rad18-specific siRNA and empty vector (siRad18+EV) and rescued by co-transfection with Rad18 (siRad18+Rad18), challenged with the indicated doses of cisplatin (CisPt) normalized to non-treated cells (mock). Means and standard deviations are shown (n=3).
U87 cells were co-transfected either with siRNA Rad18 (GAG GAU UCU UCU AGC UGU A; SEQ ID NO:3) or siRNA Luciferase (Luc) as a control and an empty vector (pcDNA3) or Rad18 expressing vector using JETPrime reagent (Polyplus). Twenty-four hours after transfection, cells were trypsinized and seeded in 12 wells plates at a density of 10 000 cells/well. Twenty-four hours later cells were treated with increasing concentration of cisplatin (Sigma).
Cells were plated at 1×10^4 per well in twelve-well plates and UV-irradiated or exposed to the indicated amount of cisplatin (CisPt, Sigma). 48 hours after irradiation, cell viability was determined using the CellTiter-Glo® Luminescent Cell Viability assay (Promega).

[3] = system: U87-MG glioblastoma cells; assay: CellTiter-Glo cell viability of U87-MG cells treated with P2207; settings: indicated doses of P2207, 48 h post-treatment, FIG. 7
Description: FIG. 7. […] Survival curves of U87-MG glioblastoma cells treated with the indicated doses of the USP7 inhibitor P2207 (Sigma-Aldrich), or DMSO as a control. Means and standard deviations are shown (n=3). Cell viability is expressed as percent (%) of viability compared to the control (DMSO).
Cells were plated at 1.0×10^4 cells/well in 12-well plates and exposed to the indicated amount of P2207 inhibitor (Sigma) or DMSO as control. 48 h post-treatment, cell viability was determined using the CellTiter-Glo luminescent cell viability assay (Promega).

Compound | proliferation of gliospheres (number of cells) [1] | sensitivity to cisplatin (cell viability) [2] | sensitization of glioblastoma to cisplatin treatment (cell viability, % of DMSO control) [3]
GAG GAU UCU UCU AGC UGU A (GAGGAUUCUUCUAGCUGUA; listed as RNA, chemistry not given here) [Rad18-specific siRNA] | affect the proliferation of gliospheres | strong sensitivity to cisplatin | 
CC(=O)c1cc([N+](=O)[O-])c(Sc2ccc(F)cc2F)s1 [P2207] |  |  | sensitizes glioblastoma to cisplatin treatment
